Results from patent US11186576B2, “Pyrazolo[1,5-A][1,3,5]triazine and pyrazolo[1,5-A]pyrimidine derivatives as CDK inhibitors” (Aurigene Discovery Technologies Limited, priority 2015, dated 2021).

Target: CDK7/CycH/MNAT1 (Homo sapiens (Human), UniProt P50613)
Test: Biochemical assay for CDK7 (TR-FRET kinase assay)
Conditions: 60 min pre-incubation, 1 mM ATP; for inhibition at 10 µM: 10 μM compound, read-out: % inhibition @ 10 μM; for IC50: read-out: IC50
Method: The ability of compounds to inhibit CDK7 kinase activity was tested in a TR-FRET assay using 5 nM of CDK7/CycH/MNAT1 obtained from Invitrogen, USA. Test compounds were pre-incubated with the kinase at room temperature for 60 min. After incubation, substrate mix [100 nM Ultra-light MBP (Perkin Elmer, USA) and 1 mM ATP (Sigma)] was added. The above reaction was stopped by the addition of 40 mM EDTA after 60 minutes of kinase reaction. 1 nM Eu-labelled antiphospho-MBP antibody [Perkin Elmer, USA] was added, mixed well and the fluorescence emission at 615 nm and 665 nm [excitation at 340 nm] was measured. The final DMSO concentration in the assay was 1%. For IC50 determination, appropriate concentrations were made by ⅓^rd serial dilutions of 10 mM DMSO stock solution of test compound. All the fluorescence measurements were made in a Victor 3 Multilabel Counter [Perkin Elmer, USA]. The IC50 was determined by fitting the dose response data to sigmoidal curve fitting equation using GraphPad Prism software V5. To identify compounds that inhibit CDK7 irreversibly, time depended inhibition studies were carried by pre-incubating compound with the enzyme at three time points (20, 60 and 180 min) and carrying out assay as described above.

Sequence of CDK7/CycH/MNAT1 (P50613 whole entry): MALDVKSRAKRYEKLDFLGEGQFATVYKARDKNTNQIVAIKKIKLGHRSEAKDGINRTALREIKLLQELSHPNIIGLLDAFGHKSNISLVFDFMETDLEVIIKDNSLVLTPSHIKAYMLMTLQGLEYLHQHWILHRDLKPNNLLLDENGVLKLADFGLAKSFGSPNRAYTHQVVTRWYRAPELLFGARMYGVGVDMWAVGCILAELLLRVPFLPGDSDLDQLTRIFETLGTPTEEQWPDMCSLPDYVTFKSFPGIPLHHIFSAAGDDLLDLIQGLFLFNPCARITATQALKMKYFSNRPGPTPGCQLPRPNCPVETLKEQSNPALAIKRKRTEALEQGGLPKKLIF
Sequence of CDK7/CycH/MNAT1 (P51946 whole entry partner): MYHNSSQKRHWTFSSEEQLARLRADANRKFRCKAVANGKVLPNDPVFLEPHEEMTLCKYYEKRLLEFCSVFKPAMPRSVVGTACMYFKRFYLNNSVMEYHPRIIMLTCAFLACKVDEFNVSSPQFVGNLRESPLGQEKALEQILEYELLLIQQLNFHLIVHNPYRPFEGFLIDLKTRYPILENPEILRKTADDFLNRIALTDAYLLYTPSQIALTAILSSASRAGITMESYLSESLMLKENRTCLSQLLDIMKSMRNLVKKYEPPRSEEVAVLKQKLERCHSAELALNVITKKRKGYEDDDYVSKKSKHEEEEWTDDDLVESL
Sequence of CDK7/CycH/MNAT1 (P51948 whole entry partner): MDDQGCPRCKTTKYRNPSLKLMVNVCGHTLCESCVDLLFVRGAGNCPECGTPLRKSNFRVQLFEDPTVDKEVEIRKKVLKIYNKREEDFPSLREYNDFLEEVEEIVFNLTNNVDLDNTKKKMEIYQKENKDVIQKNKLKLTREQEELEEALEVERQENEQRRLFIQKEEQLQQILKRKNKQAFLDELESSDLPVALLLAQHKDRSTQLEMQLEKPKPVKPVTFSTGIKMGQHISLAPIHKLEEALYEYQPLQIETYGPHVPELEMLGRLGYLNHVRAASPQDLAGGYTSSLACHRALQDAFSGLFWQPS

## C=CC(=O)N1CCC(C(=O)Nc2cccc(CNc3nc(NC4CCCC(O)C4)nc4c(C(C)C)cnn34)c2)C1 (single isomer, unassigned) [Compound 12, 1-acryloyl-N-(3-(((2-((3-hydroxycyclohexyl)amino)-8-isopropylpyrazolo[1,5-a][1,3,5]triazin-4-yl)amino)methyl)phenyl)pyrrolidine-3-carboxamide]
  inhibition at 10 µM: 92%
  IC50: 300 to 1000 nM

## C=CC(=O)Nc1cccc(C(=O)Nc2cccc(CNc3nc(NC4CCOCC4)nc4c(C(C)C)cnn34)c2)c1C [Compound 48A, 3-acrylamido-N-(3-(((8-isopropyl-2-((tetrahydro-2H-pyran-4-yl)amino)pyrazolo[1,5-a][1,3,5]triazin-4-yl)amino)methyl)phenyl)-2-methylbenzamide]
  IC50: < 300 nM

## C=CC(=O)N(C)C1(C(=O)Nc2cccc(CNc3nc(NC4CCOCC4)nc4c(C(C)C)cnn34)c2)CC1 [Compound 84, N-(3-(((8-isopropyl-2-((tetrahydro-2H-pyran-4-yl)amino)pyrazolo[1,5-a][1,3,5]triazin-4-yl)amino)methyl)phenyl)-1-(N-methylacrylamido)cyclopropane-1-carboxamide]
  inhibition at 10 µM: 97%
  IC50: < 300 nM

## C=CC(=O)N1CCC1C(=O)Nc1cccc(Nc2nc(NC3CCOCC3)nc3c(C(C)C)cnn23)c1 (centres unmarked) [Compound 86, 1-acryloyl-N-(3-((8-isopropyl-2-((tetrahydro-2H-pyran-4-yl)amino)pyrazolo[1,5-a][1,3,5]triazin-4-yl)amino)phenyl)azetidine-2-carboxamide]
  inhibition at 10 µM: 99%
  IC50: < 300 nM

## C=CC(=O)Nc1cccc(C(=O)Nc2cccc(CNc3nc(NC4CCOCC4)nc4c(C(C)C)cnn34)c2)c1 [Compound 47, 3-acrylamido-N-(3-(((8-isopropyl-2-((tetrahydro-2H-pyran-4-yl)amino)pyrazolo[1,5-a][1,3,5]triazin-4-yl)amino)methyl)phenyl)benzamide]
  inhibition at 10 µM: 100%
  IC50: < 300 nM

## C=C(C)C(=O)N1CCC1C(=O)Nc1cccc(CNc2nc(NC3CCOCC3)nc3c(C(C)C)cnn23)c1 (centres unmarked) [Compound 67, N-(3-(((8-isopropyl-2-((tetrahydro-2H-pyran-4-yl)amino)pyrazolo[1,5-a][1,3,5]triazin-4-yl)amino)methyl)phenyl)-1-methacryloylazetidine-2-carboxamide]
  inhibition at 10 µM: 91%
  IC50: 300 to 1000 nM

## C=CC(=O)N1CCCCC1C(=O)Nc1cccc(CNc2nc(N[C@H]3CCCOC3)nc3c(C(C)C)cnn23)c1 (stereo partly drawn) [Compound 40D, 1-acryloyl-N-(3-(((8-isopropyl-2-(((S)-tetrahydro-2H-pyran-3-yl)amino)pyrazolo[1,5-a][1,3,5]triazin-4-yl)amino)methyl)phenyl)piperidine-2-carboxamide]
  IC50: 300 to 1000 nM

## CCN1CCN(C/C=C/C(=O)Nc2cccc(CNc3nc(NC4CCOCC4)nc4c(C(C)C)cnn34)c2)CC1 [Compound 52, (E)-4-(4-ethylpiperazin-1-yl)-N-(3-(((8-isopropyl-2-((tetrahydro-2H-pyran-4-yl)amino)pyrazolo[1,5-a][1,3,5]triazin-4-yl)amino)methyl)phenyl)but-2-enamide]
  inhibition at 10 µM: 96%

## CC(C)c1cnn2c(NCc3cc(F)cc(NC(=O)C4CCN(C(=O)/C=C/CN(C)C)C4)c3)nc(NC3CCOCC3)nc12 (centres unmarked) [Compound 71, (E)-1-(4-(dimethylamino)but-2-enoyl)-N-(3-fluoro-5-(((8-isopropyl-2-((tetrahydro-2H-pyran-4-yl)amino)pyrazolo[1,5-a][1,3,5]triazin-4-yl)amino)methyl)phenyl)pyrrolidine-3-carboxamide]
  inhibition at 10 µM: 92%
  IC50: 300 to 1000 nM

## CCN(CC)C/C=C/C(=O)Nc1cccc(CNc2nc(NC3CCOCC3)nc3c(C(C)C)cnn23)c1 [Compound 50, (E)-4-(diethylamino)-N-(3-(((8-isopropyl-2-((tetrahydro-2H-pyran-4-yl)amino)pyrazolo[1,5-a][1,3,5]triazin-4-yl)amino)methyl)phenyl)but-2-enamide]
  inhibition at 10 µM: 97%
  IC50: < 300 nM

## C=CC(=O)N1CCC1C(=O)Nc1cccc(CNc2cc(NC3CCOCC3)nc3c(C(C)C)cnn23)c1 (centres unmarked) [Compound 139, 1-acryloyl-N-(3-(((3-isopropyl-5-((tetrahydro-2H-pyran-4-yl)amino)pyrazolo[1,5-a]pyrimidin-7-yl)amino)methyl)phenyl)azetidine-2-carboxamide]
  inhibition at 10 µM: 98%
  IC50: < 300 nM

## C=CC(=O)NC(C)C(=O)Nc1cccc(CNc2nc(NC3CCOCC3)nc3c(C(C)C)cnn23)c1 (centres unmarked) [Compound 80, N-(1-((3-(((8-isopropyl-2-((tetrahydro-2H-pyran-4-yl)amino)pyrazolo[1,5-a][1,3,5]triazin-4-yl)amino)methyl)phenyl)amino)-1-oxopropan-2-yl)acrylamide]
  inhibition at 10 µM: 94%
  IC50: 300 to 1000 nM

## C=CC(=O)N1CCOCC1C(=O)Nc1ccc(CC)c(CNc2nc(NC3CCOCC3)nc3c(C(C)C)cnn23)c1 (centres unmarked) [Compound 26, 4-acryloyl-N-(4-ethyl-3-(((8-isopropyl-2-((tetrahydro-2H-pyran-4-yl)amino)pyrazolo[1,5-a][1,3,5]triazin-4-yl)amino)methyl)phenyl)morpholine-3-carboxamide]
  inhibition at 10 µM: 95%
  IC50: 300 to 1000 nM

## C=CC(=O)N1CCC(C(=O)Nc2cccc(Nc3nc(OC4CCN(C)CC4)nc4c(C(C)C)cnn34)c2)CC1 [Compound 127, 1-acryloyl-N-(3-((8-isopropyl-2-((1-methylpiperidin-4-yl)oxy)pyrazolo[1,5-a][1,3,5]triazin-4-yl)amino)phenyl)piperidine-4-carboxamide]
  inhibition at 10 µM: 95%
  IC50: < 300 nM

## CC(C)c1cnn2c(NCc3cccc(NC(=O)/C=C/CN4CCCC(F)C4)c3)nc(NC3CCOCC3)nc12 (centres unmarked) [Compound 58, (E)-4-(3-fluoropiperidin-1-yl)-N-(3-(((8-isopropyl-2-((tetrahydro-2H-pyran-4-yl)amino)pyrazolo[1,5-a][1,3,5]triazin-4-yl)amino)methyl)phenyl)but-2-enamide]
  inhibition at 10 µM: 96%
  IC50: 300 to 1000 nM

## C=CC(=O)N1CCC1C(=O)Nc1ccc(F)c(CNc2nc(NC3CCOCC3)nc3c(C(C)C)cnn23)c1 (centres unmarked) [Compound 29, 1-acryloyl-N-(4-fluoro-3-(((8-isopropyl-2-((tetrahydro-2H-pyran-4-yl)amino)pyrazolo[1,5-a][1,3,5]triazin-4-yl)amino)methyl)phenyl)azetidine-2-carboxamide]
  inhibition at 10 µM: 98%
  IC50: < 300 nM

## CC(C)c1cnn2c(NCC3CCN(C(=O)/C=C/CN4CCCC4)CC3)nc(NC3CCOCC3)nc12 [Compound 138, (E)-1-(4-(((8-isopropyl-2-((tetrahydro-2H-pyran-4-yl)amino)pyrazolo[1,5-a][1,3,5]triazin-4-yl)amino)methyl)piperidin-1-yl)-4-(pyrrolidin-1-yl)but-2-en-1-one]
  inhibition at 10 µM: 64%
  IC50: > 1000 nM

## C=CC(=O)N[C@H]1CC[C@@H](C(=O)Nc2cc(CNc3nc(OC4CCN(C)CC4)nc4c(C(C)C)cnn34)ccc2F)CC1 [Compound 118, (1,4-cis)-4-acrylamido-N-(2-fluoro-5-(((8-isopropyl-2-((1-methylpiperidin-4-yl)oxy)pyrazolo[1,5-a][1,3,5]triazin-4-yl)amino)methyl)phenyl)cyclohexane-1-carboxamide]
  inhibition at 10 µM: 93%
  IC50: 300 to 1000 nM

## CC(C)c1cnn2c(NCc3cccc(NC(=O)/C=C/CN4CCCCC4)c3)nc(NC3CCOCC3)nc12 [Compound 55, (E)-N-(3-(((8-isopropyl-2-((tetrahydro-2H-pyran-4-yl)amino)pyrazolo[1,5-a][1,3,5]triazin-4-yl)amino)methyl)phenyl)-4-(piperidin-1-yl)but-2-enamide]
  inhibition at 10 µM: 99%
  IC50: < 300 nM

## C=CC(=O)N1CCOCC1C(=O)Nc1cccc(CNc2nc(OC3CCN(C)CC3)nc3c(C(C)C)cnn23)c1 (centres unmarked) [Compound 113, 4-acryloyl-N-(3-(((8-isopropyl-2-((1-methylpiperidin-4-yl)oxy)pyrazolo[1,5-a][1,3,5]triazin-4-yl)amino)methyl)phenyl)morpholine-3-carboxamide]
  IC50: < 300 nM

## CC(C)c1cnn2c(NCc3ccc(NC(=O)/C=C/CN4CCCC4)cc3)nc(NC3CCOCC3)nc12 [Compound 63, (E)-N-(4-(((8-isopropyl-2-((tetrahydro-2H-pyran-4-yl)amino)pyrazolo[1,5-a][1,3,5]triazin-4-yl)amino)methyl)phenyl)-4-(pyrrolidin-1-yl)but-2-enamide]
  inhibition at 10 µM: 94%
  IC50: 300 to 1000 nM

## C=CC(=O)N1CCCC(C(=O)Nc2cccc(CNc3nc(OC4CCN(C)CC4)nc4ccnn34)c2)C1 (centres unmarked) [Compound 89, 1-acryloyl-N-(3-(((2-((1-methylpiperidin-4-yl)oxy)pyrazolo[1,5-a][1,3,5]triazin-4-yl)amino)methyl)phenyl)piperidine-3-carboxamide]
  inhibition at 10 µM: 38%

## C=CC(=O)N1CCC1C(=O)Nc1cc(CNc2nc(NC3CCOCC3)nc3c(C(C)C)cnn23)ccc1C (centres unmarked) [Compound 28, 1-acryloyl-N-(5-(((8-isopropyl-2-((tetrahydro-2H-pyran-4-yl)amino)pyrazolo[1,5-a][1,3,5]triazin-4-yl)amino)methyl)-2-methylphenyl)azetidine-2-carboxamide]
  inhibition at 10 µM: 99%
  IC50: < 300 nM
